From patent US20250099596A1, “TETRAHYDRONAPHTHALENE COMPOUND, AND PREPARATION METHOD THEREFOR AND USE THEREOF IN MEDICINE” (Jiangsu Hengrui Pharmaceuticals Co., Ltd., priority 2021, published 2025)

Columns and labels:
MCF7 cells = assay: Inhibitory effects on MCF7 cell proliferation (CellTiter-Glo); type: cell-based; details: Homo sapiens, 144 h, 6 days incubation, read-out: IC50 (nM), inhibition of MCF7 cell proliferation
Procedure: (§1) MCF7 cells (TCHu74, National Collection of Authenticated Cell Cultures) were cultured in an MEM (GE Healthcare, SH30024.01) complete medium containing 10% fetal bovine serum. On day 1 of the experiment, MCF7 cells were seeded into a 96-well plate at a density of 3,000 cells/well using MEM containing 2% fetal bovine serum, with each well containing 135 μL of cell suspension. The plate was incubated in a 37° C., 5% CO2 cell incubator overnight. The next day, different concentrations of test compounds prepared in media were added at 15 μL/well. The final concentrations of the compounds were 9 concentration points obtained by 4-fold serial dilution from 1000 nM. A blank control containing 0.5% DMSO was set up. The plate was incubated in a 37° C., 5% CO2 cell incubator for 6 days. On day 8, the 96-well cell culture plate was taken out, and CellTiter-Glo® Luminescent Cell Viability Assay (Promega, G7573) was added at 75 μL/well. After the plate was left at room temperature for 10 min, luminescence signal readings were taken on a multilabel microplate reader (PerkinElmer, VICTOR 3). The IC50 values for the inhibitory activity of the compounds were calculated from the concentrations of the compounds and the luminescence signal readings using Graphpad Prism software.

MCF7/ERα Y537S cells = assay: Inhibitory activity on proliferation of ERα mutant-expressing MCF7 cells; type: cell-based; details: Homo sapiens, 144 h, 6 days incubation, CellTiter-Glo, read-out: IC50 (nM), inhibition of proliferation of ERα mutant-expressing MCF7 cells
Procedure: The objective of this experiment was to determine the inhibitory activity of the compounds of the present disclosure on the proliferation of ERα mutant-expressing MCF7 cells.
as §1, with “cells expressing the ERα Y537S mutant were constructed by lentiviral infection. MCF7/ERα Y537S cells” for “cells (TCHu74, National Collection of Authenticated Cell Cultures)”, “bovine serum and […] puromycin.” for “bovine serum.”, “experiment,” for “experiment, MCF7”, “135 µL” for “135 μL”, “75 µL/well.” for “75 μL/well.”

IC50 (MCF7 cells)	IC50 (MCF7/ERα Y537S cells)	SMILES
0.45 nM	1.28 nM	O=C1CCC(N2Cc3cc(N4CCN(CC5CCN(c6ccc([C@@H]7c8ccc(O)cc8CC[C@@H]7C7CCOCC7)c(F)c6)CC5)CC4)ccc3C2=O)C(=O)N1 (mixture of isomers) [Example 12-1, 3-(5-(4-((1-(3-Fluoro-4-((1S,2R)-6-hydroxy-2-(tetrahydro-2H-pyran-4-yl)-1,2,3,4-tetrahydronaphthalen-1-yl)phenyl)piperidin-4-yl)methyl)piperazin-1-yl)-1-oxoisoindolin-2-yl)piperidine-2,6-dione]
20 nM	72.1 nM	O=C1CCC(N2Cc3cc(N4CCN(CC5CCN(c6ccc([C@H]7c8ccc(O)cc8CCC78CCC8)cc6)CC5)CC4)ccc3C2=O)C(=O)N1 (mixture of isomers) [Example 23-2, 3-(5-(4-((1-(4-((S)-6′-Hydroxy-3′,4′-dihydro-1′H-spiro[cyclobutane-1,2′-naphthalen]-1′-yl)phenyl)piperidin-4-yl)methyl)piperazin-1-yl)-1-oxoisoindolin-2-yl)piperidine-2,6-dione]

Continued, molecule first:

SMILES	IC50 (MCF7 cells)	IC50 (MCF7/ERα Y537S cells)
O=C1CC[C@@H](N2Cc3cc(N4CCN(CC5CCN(c6ccc([C@@H]7c8ccc(O)cc8CC[C@@H]7C7CCOCC7)cc6F)CC5)CC4)ccc3C2=O)C(=O)N1 [Example 43, (R)-3-(5-(4-((1-(2-Fluoro-4-((1R,2R)-6-hydroxy-2-(tetrahydro-2H-pyran-4-yl)-1,2,3,4-tetrahydronaphthalen-1-yl)phenyl)piperidin-4-yl)methyl)piperazin-1-yl)-1-oxoisoindolin-2-yl)piperidine-2,6-dione]	3.57 nM	36.3 nM
O=C1CCC(N2Cc3cc(N4CCN(CC5CCN(c6ccc([C@@H]7c8ccc(O)cc8CC[C@@H]7CC7CC7)cc6)CC5)CC4)ccc3C2=O)C(=O)N1 (stereo in doubt) [Example 34, (S)-3-(5-(4-((1-(4-((1R,2R)-2-(Cyclopropylmethyl)-6-hydroxy-1,2,3,4-tetrahydronaphthalen-1-yl)phenyl)piperidin-4-yl)methyl)piperazin-1-yl)-1-oxoisoindolin-2-yl)piperidine-2,6-dione]	1.51 nM	19.2 nM
O=C1CCC(N2Cc3cc(N4CCN(CC5CCN(c6ccc([C@@H]7c8ccc(O)cc8CC[C@@H]7C7CCC(F)(F)CC7)cc6)CC5)CC4)ccc3C2=O)C(=O)N1 (mixture of isomers) [Example 10, 3-(5-(4-((1-(4-((1R,2R)-2-(4,4-Difluorocyclohexyl)-6-hydroxy-1,2,3,4-tetrahydronaphthalen-1-yl)phenyl)piperidin-4-yl)methyl)piperazin-1-yl)-1-oxoisoindolin-2-yl)piperidine-2,6-dione]	0.3 nM	1.38 nM
O=C1CC[C@H](N2Cc3cc(N4CCN(CC5CCN(c6ccc([C@@H]7c8ccc(O)cc8CC[C@@H]7C7CCCC7)cc6F)CC5)CC4)ccc3C2=O)C(=O)N1 [Example 19, (S)-3-(5-(4-((1-(4-((1R,2R)-2-cyclopentyl-6-hydroxy-1,2,3,4-tetrahydronaphthalen-1-yl)-2-fluorophenyl)piperidin-4-yl)methyl)piperazin-1-yl)-1-oxoisoindolin-2-yl)piperidine-2,6-dione]	0.87 nM	5.04 nM
O=C1CCC(N2Cc3cc(N4CCN(CC5CCN(c6ccc([C@H]7c8ccc(O)cc8CC[C@H]7C7CCOCC7)cc6)CC5)CC4)ccc3C2=O)C(=O)N1 (stereo partly drawn) [Example 8-2, 3-(5-(4-((1-(4-((1S,2S)-6-Hydroxy-2-(tetrahydro-2H-pyran-4-yl)-1,2,3,4-tetrahydronaphthalen-1-yl)phenyl)piperidin-4-yl)methyl)piperazin-1-yl)-1-oxoisoindolin-2-yl)piperidine-2,6-dione]	36.5 nM	92.2 nM
CC(C)C[C@H]1CCc2cc(O)ccc2[C@H]1c1ccc(N2CCC(CN3CCN(c4ccc5c(c4)CN(C4CCC(=O)NC4=O)C5=O)CC3)CC2)cc1 (mixture of isomers) [Example 41, 3-(5-(4-((1-(4-((1R,2R)-6-Hydroxy-2-isobutyl-1,2,3,4-tetrahydronaphthalen-1-yl)phenyl)piperidin-4-yl)methyl)piperazin-1-yl)-1-oxoisoindolin-2-yl)piperidine-2,6-dione]	0.62 nM	2.89 nM
